Reference: patent US4100299A, “Pharmaceutically active 2-omega-aminoalkoxydiphenylmethylmethanes” (Mitsubishi Chemical Industries Limited, priority 1977, dated 1978)
Counter-ions that a name gives are not always drawn.

Tests used:
[1] = system: reserpine induced hypothermia; assay: Antireserpine activity: antagonism of reserpine induced hypothermia (antidepressant activity); assay type: in vivo; settings: for Antireserpine Activity in Mice, Relative Potency: relative to Amitriptyline = 1, i.p., reserpine 5 mg/kg i.p.
in vivo = settings: mouse, ip
[2] = system: spontaneous motor activity; assay: Spontaneous motor activity depression (ANIMEX apparatus; CNS depressant activity); assay type: in vivo; settings: mice
Experimental: (§1) The compounds were administered intraperitoneally and the activities of the compounds were compared with those of Amitriptyline.

mice = settings: i.p.
[3] = system: electroshock induced tonic extensor; assay: Anticonvulsant activity: antagonism of electroshock induced tonic extensor; assay type: in vivo; settings: Mus musculus, ip, mice, dose which prevents 50% of each response
Experimental: as §1

traction test = assay: Muscle relaxant action: traction test (CNS depressant activity, neurological deficit); assay type: in vivo; settings: Mus musculus, ip, mice
Experimental: as §1

tremorine induced tremor = assay: Antitremorine effect (central anticholinergic effect); assay type: in vivo; settings: mice
Experimental: as §1

SMILES	Antireserpine Activity in Mice, Relative Potency [1]	LD50 (in vivo) [mg/kg]	ED50 ([2]; Mus musculus, ip, ANIMEX apparatus) [mg/kg]	CNS depressant action (in words) ([2]; i.p., traction test and spontaneous motor activity)	toxicity (in words) (mice)	antireserpine activity (in words) ([1]; mice, i.p., compared with Amitriptyline)	ED50 [3] [mg/kg]	ED50 (traction test) [mg/kg]	ED50 (tremorine induced tremor; Mus musculus, ip, tremorine induced tremor) [mg/kg]	anticholinergic action (in words) (tremorine induced tremor; i.p.)
CC(c1ccccc1)c1ccccc1OCCCN(C)C (centres unmarked) [2-(3-dimethylaminopropoxy)diphenylmethylmethane]	0.34	155								
CC(c1ccccc1)c1ccccc1OCCCCN(C)C (centres unmarked) [2-(4-dimethylaminobutoxy)diphenylmethylmethane hydrochloride]	0.36	110								
CNCCCCOc1ccccc1C(C)c1ccccc1 (centres unmarked) [2-(4-methylaminobutoxy)diphenylmethylmethane hydrochloride]	0.66	140	32	weak CNS depressant	low toxicity	antireserpine activity comparable to that of Amitriptyline	25	> 60	20	weak CNS depressant and anticholinergic action
